From patent US8735414B2 (priority 2009, dated 2014)

Assays:
[1] = test system: bicistronic HCV replicon (replicon RNA, GenBank Accession No. AJ242654); experiment: HCV Replicon Assay; assay type: cell-based; settings: Hepatitis C virus, 72 h, read-out: Replicon IC50

SMILES | melting point | IC50 [1]
C[C@H](NS(=O)(=O)c1ccc(-c2c(C#N)c3cc(C(F)(F)F)ccc3n2-c2ncccn2)nc1)C(F)(F)F [compound 922, 6-[3-cyano-1-(pyrimidin-2-yl)-5-(trifluoromethyl)-1H-indol-2-yl]-N-[(2S)-1,1,1-trifluoropropan-2-yl]pyridine-3-sulfonamide] | 180 to 183 °C | < 500 nM
N#Cc1c(-c2ccc(S(=O)(=O)NC(CF)CF)cn2)n(C2CCCC2)c2cc(C3CC3)ccc12 [compound 85, 6-(3-cyano-1-cyclopentyl-6-cyclopropyl-1H-indol-2-yl)-N-(1,3-difluoropropan-2-yl)pyridine-3-sulfonamide] | 194 to 200 °C | < 500 nM
CC(C)NS(=O)(=O)c1cnc(-c2c(C#N)c3ccc(F)cc3n2C2CCCC2)nc1 [compound 141, 2-(3-cyano-1-cyclopentyl-6-fluoro-1H-indol-2-yl)-N-(propan-2-yl)pyrimidine-5-sulfonamide] | 216 to 217 °C | 500 to 2000 nM
Cc1cc2c(C#N)c(-c3ccc(S(=O)(=O)N[C@@H](C)C(F)(F)F)cn3)n(C3CCCC3)c2cc1Cl [compound 522, 6-(6-chloro-3-cyano-1-cyclopentyl-5-methyl-1H-indol-2-yl)-N-[(2S)-1,1,1-trifluoropropan-2-yl]pyridine-3-sulfonamide] | 186 to 187 °C | < 500 nM
Cc1ccc2c(C#N)c(-c3ncc(S(=O)(=O)NC(CF)CF)cn3)n(C3CCCC3)c2c1F [compound 586, 2-(3-cyano-1-cyclopentyl-7-fluoro-6-methyl-1H-indol-2-yl)-N-(1,3-difluoropropan-2-yl)pyrimidine-5-sulfonamide] | 226 to 232 °C | < 500 nM
Cc1cc2c(cc1F)c(C(N)=O)c(-c1ccc(S(=O)(=O)N[C@@H](C)C(F)(F)F)cn1)n2-c1cccnn1 [compound 912, 5-fluoro-6-methyl-1-(pyridazin-3-yl)-2-(5-{[(2S)-1,1,1-trifluoropropan-2-yl]sulfamoyl}pyridin-2-yl)-1H-indole-3-carboxamide] | 176 to 181 °C | 2000 to 5000 nM
Cc1cc2c(cc1F)c(C#N)c(-c1ccc(S(=O)(=O)N[C@H](C)C(F)(F)F)cn1)n2C1CCCCC1 [compound 680, 6-(3-cyano-1-cyclohexyl-5-fluoro-6-methyl-1H-indol-2-yl)-N-[(2R)-1,1,1-trifluoropropan-2-yl]pyridine-3-sulfonamide] | 224 to 229 °C | < 500 nM
Cc1ccc2c(c1)c(C#N)c(-c1ncc(S(=O)(=O)NC(C)C)cn1)n2C(C)C [compound 565, 2-[3-cyano-5-methyl-1-(propan-2-yl)-1H-indol-2-yl]-N-(propan-2-yl)pyrimidine-5-sulfonamide] | 175 to 177 °C | < 500 nM
C[C@H](NS(=O)(=O)c1ccc(-c2c(C#N)c3cc(Cl)ccc3n2C2CCC2)nc1)C(F)(F)F [compound 376, 6-(5-chloro-3-cyano-1-cyclobutyl-1H-indol-2-yl)-N-[(2S)-1,1,1-trifluoropropan-2-yl]pyridine-3-sulfonamide] | 193 to 198 °C | < 500 nM
N#Cc1c(-c2ccc(S(N)(=O)=O)cn2)n(C2CCC2)c2cc(OC(F)F)c(F)cc12 [compound 722, 6-[3-cyano-1-cyclobutyl-6-(difluoromethoxy)-5-fluoro-1H-indol-2-yl]pyridine-3-sulfonamide] | 172 to 175 °C | < 500 nM
N#Cc1c(-c2ccc(S(=O)(=O)NC(CF)CF)cn2)n(-c2ccccc2)c2cc(C3CC3)ccc12 [compound 95, 6-(3-cyano-6-cyclopropyl-1-phenyl-1H-indol-2-yl)-N-(1,3-difluoropropan-2-yl)pyridine-3-sulfonamide] | 171 to 175 °C | < 500 nM
Cc1cc2c(cc1F)c(C(N)=O)c(-c1ccc(S(=O)(=O)NC3(C(F)(F)F)CC3)cn1)n2C1CCCCC1 [compound 857, 1-cyclohexyl-5-fluoro-6-methyl-2-(5-{[1-(trifluoromethyl)cyclopropyl]sulfamoyl}pyridin-2-yl)-1H-indole-3-carboxamide] | 273 to 274 °C | < 500 nM
C[C@H](NS(=O)(=O)c1ccc(-c2c(C#N)c3cc(F)ccc3n2C2CCCC2)nc1)C1CC1 [compound 143, 6-(3-cyano-1-cyclopentyl-5-fluoro-1H-indol-2-yl)-N-[(1S)-1-cyclopropylethyl]pyridine-3-sulfonamide] | 159 to 160 °C | < 500 nM
CCCn1c(-c2ccc(S(=O)(=O)N[C@@H](C)C(F)(F)F)cn2)c(C#N)c2cc(F)c(OC(F)F)cc21 [compound 786, 6-[3-cyano-6-(difluoromethoxy)-5-fluoro-1-propyl-1H-indol-2-yl]-N-[(2S)-1,1,1-trifluoropropan-2-yl]pyridine-3-sulfonamide] | 162 to 168 °C | < 500 nM
Cc1cc2c(cc1F)c(C#N)c(-c1ccc(S(=O)(=O)N[C@H](C)C(F)(F)F)cn1)n2C1CCC1 [compound 609, 6-(3-cyano-1-cyclobutyl-5-fluoro-6-methyl-1H-indol-2-yl)-N-[(2R)-1,1,1-trifluoropropan-2-yl]pyridine-3-sulfonamide] | 211 to 214 °C | < 500 nM
Cc1c(F)cc2c(C#N)c(-c3ccc(S(=O)(=O)NC(C)(C)C(F)(F)F)cn3)n(C3CCCC3)c2c1F [compound 580, 6-(3-cyano-1-cyclopentyl-5,7-difluoro-6-methyl-1H-indol-2-yl)-N-(1,1,1-trifluoro-2-methylpropan-2-yl)pyridine-3-sulfonamide] | 226 to 232 °C | < 500 nM
CCOc1cc2c(cc1F)c(C#N)c(-c1ccc(S(=O)(=O)N[C@@H](C)C(F)(F)F)cn1)n2C1CCC1 [compound 726, 6-(3-cyano-1-cyclobutyl-6-ethoxy-5-fluoro-1H-indol-2-yl)-N-[(2S)-1,1,1-trifluoropropan-2-yl]pyridine-3-sulfonamide] | 193 to 196 °C | < 500 nM
CC(C)(NS(=O)(=O)c1ccc(-c2c(C#N)c3ccc(OC(F)F)cc3n2-c2ccccn2)nc1)C(F)(F)F [compound 583, 6-[3-cyano-6-(difluoromethoxy)-1-(pyridin-2-yl)-1H-indol-2-yl]-N-(1,1,1-trifluoro-2-methylpropan-2-yl)pyridine-3-sulfonamide] | 170 to 173 °C | < 500 nM
N#Cc1ccc2c(C#N)c(-c3ncc(S(=O)(=O)NC(CF)CF)cn3)n(C3CCCC3)c2c1 [compound 469, 2-(3,6-dicyano-1-cyclopentyl-1H-indol-2-yl)-N-(1,3-difluoropropan-2-yl)pyrimidine-5-sulfonamide] | 246 to 247 °C | 500 to 2000 nM
Cc1ccc(-n2c(-c3ccc(S(=O)(=O)N[C@@H](C)C(F)(F)F)cn3)c(C#N)c3cc(F)c(C)cc32)s1 [compound 1031, 6-[3-cyano-5-fluoro-6-methyl-1-(5-methylthiophen-2-yl)-1H-indol-2-yl]-N-[(2S)-1,1,1-trifluoropropan-2-yl]pyridine-3-sulfonamide] | 246.8 to 249.4 °C | < 500 nM
CCc1cc2c(cc1F)c(C#N)c(-c1ccc(S(=O)(=O)N[C@@H](C)C(F)(F)F)cn1)n2-c1cc(OC)ccn1 [compound 955, 6-[3-cyano-6-ethyl-5-fluoro-1-(4-methoxypyridin-2-yl)-1H-indol-2-yl]-N-[(2S)-1,1,1-trifluoropropan-2-yl]pyridine-3-sulfonamide] | 227 to 233 °C | < 500 nM
CCc1ccc2c(C#N)c(-c3ccc(S(=O)(=O)N[C@@H](C)C(F)(F)F)cn3)n(C3CCC3)c2c1 [compound 338, 6-(3-cyano-1-cyclobutyl-6-ethyl-1H-indol-2-yl)-N-[(2S)-1,1,1-trifluoropropan-2-yl]pyridine-3-sulfonamide] | 198 to 199 °C | < 500 nM
Cc1ccc2c(C#N)c(-c3ccc(S(=O)(=O)NC4(C(F)(F)F)CCC4)cn3)n(C3CCCC3)c2c1 [compound 253, 6-(3-cyano-1-cyclopentyl-6-methyl-1H-indol-2-yl)-N-[1-(trifluoromethyl)cyclobutyl]pyridine-3-sulfonamide] | 214 to 218 °C | < 500 nM
CCc1ccc2c(C#N)c(-c3ccc(S(=O)(=O)NC(CF)CF)cn3)n(C3CCCC3)c2c1 [compound 310, 6-(3-cyano-1-cyclopentyl-6-ethyl-1H-indol-2-yl)-N-(1,3-difluoropropan-2-yl)pyridine-3-sulfonamide] | 204.5 to 205 °C | < 500 nM
Cc1csc(-n2c(-c3ccc(S(=O)(=O)N[C@@H](C)C(F)(F)F)cn3)c(C#N)c3cc(F)c(C)cc32)n1 [compound 1038, 6-[3-cyano-5-fluoro-6-methyl-1-(4-methyl-1,3-thiazol-2-yl)-1H-indol-2-yl]-N-[(2S)-1,1,1-trifluoropropan-2-yl]pyridine-3-sulfonamide] | 206.3 to 211.7 °C | < 500 nM
C[C@H](NS(=O)(=O)c1ccc(-c2c(C#N)c3cc(F)c(O)cc3n2C2CCCC2)nc1)C(F)(F)F [compound 576, 6-(3-cyano-1-cyclopentyl-5-fluoro-6-hydroxy-1H-indol-2-yl)-N-[(2S)-1,1,1-trifluoropropan-2-yl]pyridine-3-sulfonamide] | 214 to 216 °C | < 500 nM
CCn1c(-c2ccc(NS(=O)(=O)C(C)C)cn2)c(C#N)c2ccc(OC(C)C)cc21 [compound 286, N-{6-[3-cyano-1-ethyl-6-(propan-2-yloxy)-1H-indol-2-yl]pyridin-3-yl}propane-2-sulfonamide] | 180 to 185 °C | 500 to 2000 nM
CCc1cc2c(cc1F)c(C#N)c(-c1ccc(S(=O)(=O)NC3(C(F)(F)F)CC3)cn1)n2C1CCC1 [compound 642, 6-(3-cyano-1-cyclobutyl-6-ethyl-5-fluoro-1H-indol-2-yl)-N-[1-(trifluoromethyl)cyclopropyl]pyridine-3-sulfonamide] | 203 to 203.5 °C | < 500 nM
